According to PubChem BioAssay (NCI):
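Step 1: Grow cells in 96-well plates. Step 2: Expose to compound for 48 hours at 5 concentrations. Step 3: Interpolate endpoints linearly; if unreached, use highest concentration. Abbreviation: GI50, concentration required for 50% inhibition of growth. TGI: total growth inhibition.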

Key:
Assay in all cases: inhibition of tumour cell growth, NCI panel, 48 h
OVCAR-8 ovarian = test system: OVCAR-8 ovarian
NCI-H460 lung = test system: NCI-H460 lung
SK-MEL-5 melanoma = test system: SK-MEL-5 melanoma
MDA-MB-435 = test system: MDA-MB-435
M14 melanoma = test system: M14 melanoma
IGROV1 ovarian = test system: IGROV1 ovarian
HOP-62 NSCLC = test system: HOP-62 NSCLC
HCT-15 colon = test system: HCT-15 colon
CCRF-CEM leukemia = test system: CCRF-CEM leukemia
SR leukemia = test system: SR leukemia

Row | Structure (SMILES) | GI50 (OVCAR-8 ovarian) [µM] | TGI (OVCAR-8 ovarian) [µM] | GI50 (NCI-H460 lung) [µM] | TGI (NCI-H460 lung) [µM] | GI50 (SK-MEL-5 melanoma) [µM] | TGI (SK-MEL-5 melanoma) [µM] | GI50 (MDA-MB-435) [µM] | TGI (MDA-MB-435) [µM] | GI50 (M14 melanoma) [µM] | TGI (M14 melanoma) [µM] | GI50 (IGROV1 ovarian) [µM] | TGI (IGROV1 ovarian) [µM] | GI50 (HOP-62 NSCLC) [µM] | TGI (HOP-62 NSCLC) [µM] | GI50 (HCT-15 colon) [µM] | TGI (HCT-15 colon) [µM] | GI50 (CCRF-CEM leukemia) [µM] | TGI (CCRF-CEM leukemia) [µM] | TGI (SR leukemia) [µM]
1 | O=C(NO)[C@@H](Cc1ccccc1)NS(=O)(=O)c1ccc(-c2ccccc2)cc1 | 22.5 | > 25 | 13.6 | > 25 | 20.6 | > 25 | 13.4 | > 25 | > 25 | > 25 | 8.52 | > 25 | 18.1 | > 25 | > 25 | > 25 | > 25 | > 25 | –
2 | Nc1n[n+](-c2ccccc2)no1 | – | > 100 | – | > 100 | – | > 100 | – | – | – | > 100 | – | > 100 | – | > 100 | – | > 100 | – | > 100 | –
3 | Cc1cn2c(/C=N/N=C(N)N)c(-c3ccccn3)nc2s1 | 13.9 | > 56.2 | 14.9 | > 75.6 | 7.95 | 25.8 | 19 | 41.6 | 19.6 | > 52.1 | 16 | > 100 | 10.5 | 26.9 | 19.5 | 39.1 | 12.3 | > 100 | –
4 | Cc1cccc2c1CCC21OC(=O)c2c1ccc1ccccc21 (stereo unspecified) | – | > 100 | – | > 100 | – | 46 | – | – | – | 64.8 | – | > 100 | – | > 100 | – | > 100 | – | > 100 | 85.3
5 | Oc1c(Cl)cc(Cl)cc1C(c1cc(Cl)cc(Cl)c1O)C(Cl)(Cl)Cl | 3.12 | 15.7 | 2.01 | 9.38 | 1.21 | 2.73 | 2.13 | 5.12 | 3.11 | 10.1 | – | – | 3.77 | 15 | 0.825 | 13.8 | 2.86 | 24.8 | –
6 | CCOC(=O)c1cnc2c(ccc3ncccc32)c1NCCCN(CC)CC | – | – | – | > 100 | – | > 100 | – | – | – | 35.1 | – | > 100 | – | > 100 | – | > 100 | – | > 100 | –
7 | NC1=NN(c2ccccc2)C(=O)C1C(=O)C(=O)Nc1nccs1 (stereo unspecified) | – | > 100 | – | > 100 | – | > 100 | – | – | – | > 100 | – | > 100 | – | > 100 | – | > 100 | – | > 100 | > 100
8 | C/C=C(\CCOS(=O)(=O)c1ccc(C)cc1)[Si](C)(C)C | – | > 100 | – | > 100 | – | > 100 | – | – | – | > 100 | – | > 100 | – | – | – | > 100 | – | 27.3 | > 100
9 | O=C1c2ccccc2-c2c1c1c(O)cccc1n2Cc1ccccn1 | 74 | > 100 | 52.1 | > 100 | 8.77 | > 100 | 27.4 | > 100 | 70.7 | > 100 | 88.6 | > 100 | 84.9 | > 100 | 53.8 | > 100 | 29.5 | > 100 | –
